Data published in article PMC12368481, “Discovery of a Phenylalanine‐Derived Natural Compound as a Potential Dual Inhibitor of MDM2 and MDMX” (Chemmedchem, 2025).

Target: T1, MDMX (Homo sapiens, UniProt O15151)
T1 construct: gene MDM4
T1 sequence (O15151 1-110 limits assumed): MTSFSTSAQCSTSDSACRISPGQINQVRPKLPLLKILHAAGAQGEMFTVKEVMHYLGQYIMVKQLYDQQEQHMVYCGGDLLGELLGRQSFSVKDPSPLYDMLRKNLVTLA
Assay: SPR (Biacore T200), multicycle kinetics
Type: binding
Conditions: read-out: MDMX / K D

## COC(CCCCCCC(C)C)C(=O)N[C@@H](Cc1ccccc1)C(=O)O (stereo partly shown) [P5]
  Kd: 593 nM
